Like-named read-outs stand apart in the source and are kept apart here.
Columns and labels:
NCCc1ccc(O)c(O)c1 = experiment: cells, lysate or membranes; conditions: other: substrate uptake, COS-7, 96 well plates, 10 min, room temperature; pH 7.4
hSERT Y95F [1] = molecular target: T1, hSERT Y95F (Homo sapiens, UniProt P31645, Y95F)
hSERT WT [2] = molecular target: T2, hSERT WT (Homo sapiens, UniProt P31645); conditions: gluconate substituted for Cl-
hSERT D98G = hSERT D98G (Homo sapiens, UniProt P31645, D98G)
hSERT WT [3] = molecular target: T2, hSERT WT
SERT = SERT (Rattus norvegicus, UniProt P31652); assay type: in vivo; conditions: exogenously applied, anesthetized rats, mean ± SEM, n = 10
Sequence of SERT (P31652 whole entry): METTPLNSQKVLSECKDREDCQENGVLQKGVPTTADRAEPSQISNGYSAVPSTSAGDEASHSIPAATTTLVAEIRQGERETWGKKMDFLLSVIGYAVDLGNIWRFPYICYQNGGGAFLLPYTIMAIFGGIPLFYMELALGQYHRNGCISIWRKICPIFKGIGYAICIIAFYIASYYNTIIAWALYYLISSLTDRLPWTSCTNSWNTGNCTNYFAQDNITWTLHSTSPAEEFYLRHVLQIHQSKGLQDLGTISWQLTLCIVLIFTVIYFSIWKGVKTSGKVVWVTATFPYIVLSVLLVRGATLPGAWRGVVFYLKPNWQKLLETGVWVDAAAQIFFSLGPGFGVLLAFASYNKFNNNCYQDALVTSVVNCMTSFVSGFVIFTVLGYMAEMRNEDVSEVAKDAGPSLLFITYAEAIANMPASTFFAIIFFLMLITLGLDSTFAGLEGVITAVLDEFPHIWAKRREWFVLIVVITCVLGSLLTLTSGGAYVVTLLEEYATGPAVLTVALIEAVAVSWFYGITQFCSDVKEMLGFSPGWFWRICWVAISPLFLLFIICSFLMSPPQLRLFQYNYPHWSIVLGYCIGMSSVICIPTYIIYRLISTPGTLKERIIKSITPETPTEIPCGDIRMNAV

hSERT WT [4] = molecular target: T2, hSERT WT; conditions: 20 μM 5HT or 2 mM DA extracellular
hSERT Y95F/C109A/I179C = hSERT Y95F/C109A/I179C (Homo sapiens, UniProt P31645, C109A/I179C/Y95F); experiment: Uptake with MTSET-sensitive mutant in COS-7 cells; assay type: cell-based
hSERT WT [5] = molecular target: T2, hSERT WT; conditions: 0.2-0.5 nM [125I]RTI-55, 1 hour on ice
hSERT WT [6] = molecular target: T2, hSERT WT; remark: listed apart in the source
hSERT Y95F [7] = molecular target: T1, hSERT Y95F; remark: listed apart in the source
hSERT WT [8] = molecular target: T2, hSERT WT; remark: listed apart in the source
DAT = DAT (Rattus norvegicus, UniProt P23977); assay type: in vivo; conditions: 10 mg/kg i.p., dorsal striatum
Sequence of DAT (P23977 whole entry): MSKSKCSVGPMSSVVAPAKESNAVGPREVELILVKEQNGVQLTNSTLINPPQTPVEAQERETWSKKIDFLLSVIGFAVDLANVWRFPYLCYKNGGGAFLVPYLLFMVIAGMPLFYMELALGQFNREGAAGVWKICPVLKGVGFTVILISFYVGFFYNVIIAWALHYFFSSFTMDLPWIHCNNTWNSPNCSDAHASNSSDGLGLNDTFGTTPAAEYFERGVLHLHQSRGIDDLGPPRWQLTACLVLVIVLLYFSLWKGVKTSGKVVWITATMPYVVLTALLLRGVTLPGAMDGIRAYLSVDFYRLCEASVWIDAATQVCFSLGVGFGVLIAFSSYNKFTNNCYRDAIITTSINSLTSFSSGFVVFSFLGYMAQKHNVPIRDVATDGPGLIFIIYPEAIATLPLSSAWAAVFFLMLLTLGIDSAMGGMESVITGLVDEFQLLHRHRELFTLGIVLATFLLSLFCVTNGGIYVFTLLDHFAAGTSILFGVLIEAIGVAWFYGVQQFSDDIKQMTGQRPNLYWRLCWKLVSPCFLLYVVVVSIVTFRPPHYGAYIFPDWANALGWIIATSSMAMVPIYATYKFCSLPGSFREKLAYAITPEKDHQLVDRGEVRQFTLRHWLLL

[9] = substrate uptake, COS-7, 96 well plates, 10 min, room temperature
[10] = read-out: IC50 for inhibition of [3H]5HT uptake
[11] = read-out: IC50 for inhibition of [3H]DA uptake

## hSERT WT (Homo sapiens)
NCCc1ccc(O)c(O)c1
  Km: 78 ± 5.7 µM

## NCCc1ccc(O)c(O)c1 [DA, dopamine]
hSERT Y95F [1]; [9]
  Vmax: 2.4 ± 0.52 pmol/well/min
hSERT Y95F [1]; times higher
  Vmax for DA transport relative to Vmax for 5HT transport: 4–5 times
hSERT WT [2]
  apparent affinity for Cl- in substrate transport: ~ 100 mM
hSERT D98G
  DA uptake activity: no DA uptake activity
hSERT WT [3]
  mode of inhibition of 5HT uptake: competitive inhibitor
SERT
  baseline clearance time (T80): 79.5 ± 4.1 s
hSERT WT [4]
  efflux of preloaded [3H]5HT: substantial and comparable efflux
  efflux of preloaded [3H]DA: no significant efflux
hSERT Y95F/C109A/I179C; before or after MTSET treatment
  transport of DA: < 2%
hSERT WT [5]
  relation of 5HT and DA binding sites: mutually exclusive
hSERT WT [6]; [9]
  Vmax: 2.7 ± 0.65 pmol/well/min
hSERT WT [6]; times higher
  Vmax for DA transport relative to Vmax for 5HT transport: 4–5 times

## CNC(C)Cc1ccc2c(c1)OCO2 (centres unmarked) [MDMA, 3,4-methylenedioxymethamphetamine]
hSERT Y95F [7]; [10]
  IC50: 3100 ± 430 nM
hSERT Y95F [7]; [11]
  IC50: 940 ± 110 nM
hSERT WT [8]; [10]
  IC50: 4400 ± 840 nM
hSERT WT [8]; [11]
  IC50: 2700 ± 330 nM

## NCCc1c[nH]c2ccc(O)cc12 [5HT, serotonin]
SERT
  baseline clearance time (T80): 73.4 ± 8.3 s

## C[N+](C)(C)CCSS(C)(=O)=O [MTSET, [2-(trimethylammonium)ethyl] methane-thiosulfonate]
hSERT Y95F/C109A/I179C; 10 mM MTSET, 10 min
  decrease of 5HT uptake activity: > 90%

## CN(C)CCCC1(c2ccc(F)cc2)OCc2cc(C#N)ccc21 (centres unmarked) [Citalopram, citalopram]
DAT
  effect on DA clearance time (T80): unaffected

From PMC3107525 (The Journal of neuroscience : the official journal of the …, 2011)
